# Assay results from PubChem BioAssay (NCI).
#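 Step 1: Grow cells in 96-well plates. Step 2: Expose to compound for 48 hours at 5 concentrations. Step 3: Interpolate endpoints linearly; if unreached, use highest concentration. The concentration for full growth arrest is given as TGI.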
# How the values were obtained:
# Test in all cases: NCI-60 cell line screen, 48 h
# SW-620 colon = system: SW-620 colon
# HT29 colon = system: HT29 colon
# NCI-H226 lung = system: NCI-H226 lung
# 786-0 renal = system: 786-0 renal
# OVCAR-8 ovarian = system: OVCAR-8 ovarian
# SF-539 CNS = system: SF-539 CNS
# OVCAR-5 ovarian = system: OVCAR-5 ovarian
# SNB-19 CNS = system: SNB-19 CNS
# SK-MEL-2 melanoma = system: SK-MEL-2 melanoma
# LOX IMVI melanoma = system: LOX IMVI melanoma
# IGROV1 ovarian = system: IGROV1 ovarian
# U251 CNS = system: U251 CNS
# CCRF-CEM leukemia = system: CCRF-CEM leukemia
# UACC-257 melanoma = system: UACC-257 melanoma
# HCC-2998 colon = system: HCC-2998 colon
# DU-145 prostate = system: DU-145 prostate
# HL-60(TB) leukemia = system: HL-60(TB) leukemia
# SF-268 CNS = system: SF-268 CNS
# ACHN renal = system: ACHN renal
# KM12 colon = system: KM12 colon
# M14 melanoma = system: M14 melanoma
# COLO 205 colon = system: COLO 205 colon
# HCT-15 colon = system: HCT-15 colon
# SN12C renal = system: SN12C renal
# HOP-92 NSCLC = system: HOP-92 NSCLC
# A498 renal = system: A498 renal
# NCI-H23 lung = system: NCI-H23 lung
# MALME-3M melanoma = system: MALME-3M melanoma
# PC-3 prostate = system: PC-3 prostate
# MCF7 breast = system: MCF7 breast
# HOP-62 NSCLC = system: HOP-62 NSCLC
# TK-10 renal = system: TK-10 renal
# SK-OV-3 ovarian = system: SK-OV-3 ovarian
# CAKI-1 renal = system: CAKI-1 renal
# NCI-H460 lung = system: NCI-H460 lung
# RXF 393 renal = system: RXF 393 renal
# OVCAR-4 ovarian = system: OVCAR-4 ovarian
# UO-31 renal = system: UO-31 renal
# SF-295 CNS = system: SF-295 CNS
# HCT-116 colon = system: HCT-116 colon
# T-47D breast = system: T-47D breast
# MDA-MB-435 = system: MDA-MB-435
# SR leukemia = system: SR leukemia
# NCI/ADR-RES ovarian = system: NCI/ADR-RES ovarian
# EKVX NSCLC = system: EKVX NSCLC
# SK-MEL-28 melanoma = system: SK-MEL-28 melanoma
# UACC-62 melanoma = system: UACC-62 melanoma
# A549 NSCLC = system: A549 NSCLC
# K-562 leukemia = system: K-562 leukemia
# RPMI-8226 leukemia = system: RPMI-8226 leukemia
# MOLT-4 leukemia = system: MOLT-4 leukemia
# MDA-N = system: MDA-N
# SK-MEL-5 melanoma = system: SK-MEL-5 melanoma
structure (smiles),measurement,setting,value
CC(=NNC(=S)Nc1ccccc1C)c1cccc(C(C)=NNC(=S)Nc2ccccc2C)n1,TGI,SW-620 colon,> 100 µM
same,TGI,HT29 colon,> 100 µM
same,TGI,NCI-H226 lung,> 100 µM
same,TGI,786-0 renal,> 100 µM
same,TGI,OVCAR-8 ovarian,> 100 µM
same,TGI,SF-539 CNS,> 100 µM
same,TGI,OVCAR-5 ovarian,> 100 µM
same,TGI,SNB-19 CNS,> 100 µM
same,TGI,SK-MEL-2 melanoma,> 100 µM
same,TGI,LOX IMVI melanoma,> 100 µM
same,TGI,IGROV1 ovarian,> 100 µM
same,TGI,U251 CNS,> 100 µM
same,TGI,CCRF-CEM leukemia,> 100 µM
same,TGI,UACC-257 melanoma,> 100 µM
same,TGI,HCC-2998 colon,> 100 µM
same,TGI,DU-145 prostate,> 100 µM
same,TGI,HL-60(TB) leukemia,> 100 µM
same,TGI,SF-268 CNS,> 100 µM
same,TGI,ACHN renal,59.8 µM
same,TGI,KM12 colon,> 100 µM
same,TGI,M14 melanoma,> 100 µM
same,TGI,COLO 205 colon,> 100 µM
same,TGI,HCT-15 colon,> 100 µM
same,TGI,SN12C renal,> 100 µM
same,TGI,HOP-92 NSCLC,> 100 µM
same,TGI,A498 renal,> 100 µM
same,TGI,NCI-H23 lung,> 100 µM
same,TGI,MALME-3M melanoma,76.9 µM
same,TGI,PC-3 prostate,> 100 µM
same,TGI,MCF7 breast,> 100 µM
same,TGI,HOP-62 NSCLC,> 100 µM
same,TGI,TK-10 renal,> 100 µM
same,TGI,SK-OV-3 ovarian,> 100 µM
same,TGI,CAKI-1 renal,> 100 µM
same,TGI,NCI-H460 lung,> 100 µM
same,TGI,RXF 393 renal,> 100 µM
same,TGI,OVCAR-4 ovarian,91.7 µM
same,TGI,UO-31 renal,> 100 µM
same,TGI,SF-295 CNS,> 100 µM
same,TGI,HCT-116 colon,> 100 µM
same,TGI,T-47D breast,> 100 µM
same,TGI,MDA-MB-435,> 100 µM
same,TGI,SR leukemia,12 µM
same,TGI,NCI/ADR-RES ovarian,> 100 µM
same,TGI,EKVX NSCLC,> 100 µM
same,TGI,SK-MEL-28 melanoma,> 100 µM
same,TGI,UACC-62 melanoma,> 100 µM
same,TGI,A549 NSCLC,> 100 µM
same,TGI,K-562 leukemia,> 100 µM
same,TGI,RPMI-8226 leukemia,> 100 µM
same,TGI,MOLT-4 leukemia,> 100 µM
same,TGI,MDA-N,> 100 µM
same,TGI,SK-MEL-5 melanoma,> 100 µM
